Test results from patent publication US20260344665A1, “FUNGICIDAL COMPOUND” (priority 2022, published 2026).

Tests used:
Type in all cases: in vivo
[1] = system: Puccinia recondita f. sp. tritici; assay: Puccinia recondita f. sp. tritici / wheat / leaf disc curative (brown rust); conditions: for % reduction fungal growth: wheat
Description: Leaf disks or leaf segments of various plant species were cut from plants grown in the greenhouse. The cut leaf discs or segments were placed in multiwell plates (24-well format) onto water agar. The leaf disks were sprayed with a test solution before (preventative) or after (curative) inoculation. Compounds to be tested were prepared as water solutions (max. 10 mg/ml) which were diluted to the appropriate concentration with 0.025% Tween20 just before spraying. The inoculated leaf discs or segments were incubated under defined conditions (temperature, relative humidity, light, etc.) according to the respective test system. A single evaluation of disease level was carried out 3-9 days days after inoculation, depending on the pathosystem. Percent disease control relative to the untreated check leaf discs or segments was then calculated.
Puccinia recondita f. sp. tritici/Wheat/Leaf Disc Curative (Brown Rust)
Wheat leaf segments cv. Kanzler were placed on agar in multiwell plates (24-well format). The leaf segments were inoculated with a spore suspension of the fungus. Plates were stored in darkness at 19 °C and 75% rh. The formulated test compound diluted in water was applied 1 day after inoculation. The leaf segments were incubated at 19 °C and 75% rh under a light regime of 12 h light/12 h darkness in a climate cabinet and the activity of a compound was assessed as percent disease control compared to untreated when an appropriate level of disease damage appeared in untreated check leaf segments (6-8 days after application).

Zymoseptoria tritici = assay: Leaf painting assay in wheat seedling, Zymoseptoria tritici preventive
Description: Wheat seedlings of the variety Riband (for Zymoseptoria tritici trials) or variety Arina (for Puccinia recondite trials) were grown in the glasshouse until 14d after seeding. At this time, such seedlings usually have a first leaf fully emerged (designated L1), a second leaf fully emerged (L2) and a third leaf (L3) that is partially emerged and in the process of development. Using a permanent pen, two dots were applied on the second leaf such as to generate three segments of roughly equal size: Segment A (at the base), segment B (middle part) and segment C (tip of the leaf). A stock solution of the compound of Formula (I) was produced in water and of benzovindiflupyr in DMSO at a concentration of 10,000 ppm. […] The diluted compound was applied to the middle segment of L2 using a conventional cotton stick; the cotton stick was soaked in the diluted compound and rubbed several times on the adaxial leaf surface between the two marks. One day later, the complete plant was inoculated with a fungal spore suspension using a paint brush. The spore suspension was applied until before run-off.
For infection with Zymoseptoria tritici (preventive), the test plants were inoculated by spraying a spore suspension on them one day after application (1.5 Mio spores per ml in water supplemented with 0.01% Tween20). After an incubation period of 4 days at 22 °C/21 °C (day/night) and 95% rh, the inoculated test plants were kept at 22 °C/21 °C (day/night) and 70% rh in a greenhouse.
The three segments of the leaf were evaluated individually.

[2] = system: Blumeria graminis f.sp. tritici; assay: Powdery mildew assay in wheat (haustoria formation)

CC(=O)NC1C(OCC(OC2OC(CO)C(O)C(O)C2O)C2OC(OC3C(O)C(CO)OC(OC4(CO)OC(C(O)CO)C(O)C4OC4OC(CO)C(O)C(O)C4O)C3O)C(O)C(O)C2OC2OC(C(O)CO)C(O)C(O)C2OC2OCC(OC(N)=O)C(O)C2O)OC(CO)C(O)C1O (centres unmarked) [compound of Formula (I)]
curative activity to control Puccinia recondita [1]: curative (infection of pathogen followed by application of compound) activity | % reduction fungal growth ([1]; 0.80 ppm): 0% | % reduction fungal growth ([1]; 2.50 ppm): 0% | % reduction fungal growth ([1]; 7.40 ppm): 0% | % reduction fungal growth ([1]; 22.00 ppm): 90% | % reduction fungal growth ([1]; 67.00 ppm): 100% | % reduction fungal growth ([1]; 200.00 ppm): 100% | % reduction fungal growth (Zymoseptoria tritici; Experiment 1, 200.00 ppm, base segment, preventive): 24% | % reduction fungal growth (Zymoseptoria tritici; Experiment 1, 200.00 ppm, middle segment (treated), preventive): 93% | % reduction fungal growth (Zymoseptoria tritici; Experiment 1, 200.00 ppm, tip segment, preventive): 99% | % reduction fungal growth (Zymoseptoria tritici; Experiment 3, 400.00 ppm, base segment, preventive): 1% | % reduction fungal growth (Zymoseptoria tritici; Experiment 3, 400.00 ppm, middle segment (treated), preventive): 96% | % reduction fungal growth (Zymoseptoria tritici; Experiment 3, 400.00 ppm, tip segment, preventive): 100% | activity against growth of fungus (Zymoseptoria tritici; leaf painting, preventive): active against growth | control on treated and above treated area (Zymoseptoria tritici; middle segment treated): provided control on the treated area (middle segment) as well as the above treated area (tip) | minimal effective concentration ([2]; Blumeria graminis, 48 h, pre-treated wheat, read-out: concentration at which effect on haustoria formation is observed): ≥ 25 µM | activity at 1 µM ([2]; Blumeria graminis, 1 μM, 48 h after infecting, read-out: haustoria formation (% relative to control)): 106% | activity at 25 µM ([2]; Blumeria graminis, 25 μM, 48 h after infecting, read-out: haustoria formation (% relative to control)): 59.1% | activity at 100 µM ([2]; Blumeria graminis, 100 μM, 48 h after infecting, read-out: haustoria formation (% relative to control)): 66.4% | reduction of haustoria formation ([2]; pre-treated wheat): reduction of haustoria formation
